These results are taken from US9434725B2, “5-azaindazole compounds and methods of use” (priority 2012, dated 2016).

Counter-ions that a name gives are not always drawn. Like-named read-outs stand apart in the source and are kept apart here.

As a reminder, the IC50 is the concentration that gives 50% inhibition. Usually EC50 stands for the concentration needed to bring the measured effect to its halfway point. One may read the Ki as the equilibrium dissociation constant of an inhibitor or competing ligand from its target.

In one test the test system is BaF3 PIM1 cells. The test is described as follows: In vitro cell proliferation potency assay (Cell Titer Glo), BaF3 PIM1 cells. It counts as cell-based, murine. Conditions: Mus musculus, BaF3, BaF3 cells transfected with PIM1, incubated overnight; read-out: Prolif BaF3_PIM 1 (IC50). (In general: ATP-based viability assays read luminescence as a measure of living cells.)

Test [1] deals with MM1.S (multiple myeloma) cells. Description: In vitro cell proliferation potency assay (Cell Titer Glo), MM1.S cells. The class given is cell-based. Conditions: Homo sapiens, read-out: Prolif MM1S ATP (EC50). As for the experimental part:
BaF3 parental line was obtained from the DSMZ repository. BaF3 lines transfected with PIM1 or PIM2 were generated. Mouse IL-3 was purchased from R&D Systems. G418 was purchased from Clontech. Media for BaF3 parental line contained RPMI, 10% FBS, 2 mM L-Glutamine, 2 ng/mL mIL-3. Media for BaF3 PIM1 & 2 lines contained RPMI, 10% FBS, 2 mM L-Glutamine, […]. Media for MM1.S (multiple myeloma cells) line contained RPMI, 10% FBS, 2 mM L-Glutamine.
BaF3, a murine interleukin-3 dependent pro-B cell line, parental cells, BaF3 PIM1 cells, BaF3 PIM2 cells, and MM1.S (multiple myeloma) cells were seeded at 2 k/well, 5 k/well, 5 k/well, and 10 k/well respectively, in a 384-well plate, at 45 μL/well. Test compound was added at 5 μL/well. BaF3 cells (parental and transfected) were incubated overnight, while MM1.S cells were incubated for 72 hours at 37° C., 5% CO2. CELL TITER GLO® Reagent (Promega) was added at 50 μL/well, the plates were incubated for 30 minutes, and their luminescence read on an HT Analyst. IC50/EC50 values for the test compound were calculated.

The target in a further test is PIM1 (Homo sapiens (Human), UniProt P11309). Description: biochemical. It counts as biochemical. Conditions: 10 μM ATP, 90 min, room temperature; read-out: PIM1 LC3K (KI). An outline of the steps:
(§1)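 Pim-specific fluorescent peptide phosphorylated in 10 mM HEPES pH 7.2, 10 mM MgCl2, 0.01% Tween 20, 2 mM DTT for 90 min at room temperature, then stopped with EDTA. Product and substrate separated by microfluidic mobility shift; Ki derived from substrate conversion.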

In the next test the target is PIM3 (Homo sapiens (Human), UniProt Q86V86). The test is described as follows: Pim kinase binding activity, Caliper LC3000 microfluidic peptide phosphorylation assay, PIM3. The class given is biochemical. Conditions: 10 μM ATP, 90 min, room temperature; read-out: PIM3 LC3K (KI). An outline of the steps:
as §1

The target of a further test is PIM2 (Homo sapiens (Human), UniProt Q9P1W9). Description: Pim kinase binding activity, Caliper LC3000 microfluidic peptide phosphorylation assay, PIM2. The class given is biochemical. Conditions: 10 μM ATP, 90 min, room temperature; read-out: PIM2 LC3K (KI). An outline of the steps: as §1
[2] abbreviates: MM1.S, 72 h, MM1.S cells, 72 hours.

Chain of PIM1 (P11309 whole entry): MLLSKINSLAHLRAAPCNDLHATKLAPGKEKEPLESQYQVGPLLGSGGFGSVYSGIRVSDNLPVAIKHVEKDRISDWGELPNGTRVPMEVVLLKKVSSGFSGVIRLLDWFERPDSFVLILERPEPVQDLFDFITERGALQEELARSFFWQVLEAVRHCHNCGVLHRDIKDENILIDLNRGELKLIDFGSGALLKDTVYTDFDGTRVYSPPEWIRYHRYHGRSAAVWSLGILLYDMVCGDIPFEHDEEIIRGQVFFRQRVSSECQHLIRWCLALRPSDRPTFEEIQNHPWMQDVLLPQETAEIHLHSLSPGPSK
Chain of PIM2 (Q9P1W9 whole entry): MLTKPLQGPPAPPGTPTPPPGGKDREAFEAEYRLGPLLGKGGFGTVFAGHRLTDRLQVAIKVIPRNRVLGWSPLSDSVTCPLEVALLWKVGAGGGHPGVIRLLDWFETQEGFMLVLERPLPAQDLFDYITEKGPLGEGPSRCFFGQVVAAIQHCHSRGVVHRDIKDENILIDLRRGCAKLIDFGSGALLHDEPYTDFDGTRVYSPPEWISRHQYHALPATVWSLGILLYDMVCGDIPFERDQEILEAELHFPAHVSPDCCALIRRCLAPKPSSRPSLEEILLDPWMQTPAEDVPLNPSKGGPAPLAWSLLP

On to `Cc1cncc(-c2cc3c(cn2)cnn3-c2ccc(C#N)c(N3CCC[C@H](N)C3)n2)n1` [Compound 201, (S)-2-(3-aminopiperidin-1-yl)-6-(6-(6-methylpyrazin-2-yl)-1H-pyrazolo[4,3-c]pyridin-1-yl)nicotinonitrile], for which the IC50 in the test with BaF3 PIM1 cells stood at 490 nM. Besides, the EC50 in test [1] (MM1.S cells, 72 hours) stood at 1100 nM. Further, the inhibition constant (Ki) on PIM1 amounted to 0.068 nM; on PIM3 it was 0.02 nM; at PIM2, 0.286 nM.

`Cc1cncc(-c2cc3c(cn2)cnn3-c2ccc(C)c(N3CCC[C@H](N)C3)n2)n1` [Compound 205, (S)-1-(3-methyl-6-(6-(6-methylpyrazin-2-yl)-1H-pyrazolo[4,3-c]pyridin-1-yl)pyridin-2-yl)piperidin-3-amine]: the IC50 with BaF3 PIM1 cells was 278 nM. In addition, the concentration giving a half-maximal response (EC50) in test [1] (setting [2]) worked out at 1200 nM. For the same compound, the inhibition constant (Ki) on PIM1 was determined as 0.018 nM; at PIM3, 0.014 nM; at PIM2, 0.142 nM.

On to `Cc1cncc(-c2cc3c(cn2)cnn3-c2ccc(CO)c(N3CCC[C@H](N)C3)n2)n1` [Compound 218, (S)-(2-(3-aminopiperidin-1-yl)-6-(6-(6-methylpyrazin-2-yl)-1H-pyrazolo[4,3-c]pyridin-1-yl)pyridin-3-yl)methanol], for which, in the test on BaF3 PIM1 cells, the half-maximal inhibitory concentration (IC50) is 212 nM. Besides, the concentration giving a half-maximal response (EC50) in test [1] (MM1.S cells, 72 hours) is 574 nM. Also, the inhibitory constant (Ki) on PIM1 is 0.06 nM; on PIM3 it was 0.054 nM; at PIM2, 0.394 nM.

Regarding `OCc1cncc(-c2cc3c(cn2)cnn3-c2cccc(N3CCNCC3)n2)n1` [Compound 273, (6-(1-(6-(piperazin-1-yl)pyridin-2-yl)-1H-pyrazolo[4,3-c]pyridin-6-yl)pyrazin-2-yl)methanol dihydrochloride], in the test on BaF3 PIM1 cells, the IC50 was found to be 629 nM. Further, in test [1] (MM1.S, 72 h), the EC50 worked out at 5500 nM. The Ki on PIM1 is 0.117 nM; on PIM3 it was 0.036 nM; at PIM2 it was 2.63 nM.

Turning to `C=Cc1cncc(-c2cc3c(cn2)cnn3-c2cccc(N3CCNCC3)n2)n1` [Compound 274, 1-(6-(piperazin-1-yl)pyridin-2-yl)-6-(6-vinylpyrazin-2-yl)-1H-pyrazolo[4,3-c]pyridine dihydrochloride], the half-inhibitory concentration (IC50) in the test on BaF3 PIM1 cells turned out to be 749 nM. For the same compound, the half-maximal effective concentration (EC50) in test [1] (MM1.S, 72 h) was determined as 5100 nM. The Ki on PIM1 turned out to be 0.133 nM; at PIM3, 0.098 nM; on PIM2, 4.26 nM.

Regarding `OCCOc1cncc(-c2cc3c(cn2)cnn3-c2cccc(N3CCNCC3)n2)n1` [Compound 278, 2-((6-(1-(6-(piperazin-1-yl)pyridin-2-yl)-1H-pyrazolo[4,3-c]pyridin-6-yl)pyrazin-2-yl)oxy)ethanol dihydrochloride], the IC50 with BaF3 PIM1 cells turned out to be 261 nM. Besides, the half-maximal effective concentration (EC50) in test [1] (MM1.S, 72 h) was > 6200 nM. In addition, the Ki turned out to be 0.163 nM at PIM1, 0.105 nM at PIM3 and 2.62 nM on PIM2.

`FC(F)c1cncc(-c2cc3c(cn2)cnn3-c2cccc(N3CCNCC3)n2)n1` [Compound 279, 6-(6-(difluoromethyl)pyrazin-2-yl)-1-(6-(piperazin-1-yl)pyridin-2-yl)-1H-pyrazolo[4,3-c]pyridine trifluoroacetate]: the concentration for half-maximal inhibition (IC50) with BaF3 PIM1 cells came out at 622 nM. The EC50 in test [1] (MM1.S cells, 72 hours) came out at 2300 nM. Moreover, the inhibition constant Ki was determined as 0.229 nM at PIM1, 0.132 nM at PIM3 and 3.99 nM at PIM2.

Take `OC1CN(c2cncc(-c3cc4c(cn3)cnn4-c3cccc(N4CCNCC4)n3)n2)C1` [Compound 281, 1-(6-(1-(6-(piperazin-1-yl)pyridin-2-yl)-1H-pyrazolo[4,3-c]pyridin-6-yl)pyrazin-2-yl)azetidin-3-ol]: in the test on BaF3 PIM1 cells, the IC50 turned out to be 695 nM. In addition, the concentration for a half-maximal effect (EC50) in test [1] (setting [2]) is 16000 nM. The inhibition constant Ki on PIM1 came to 0.048 nM; at PIM3 it was 0.064 nM; on PIM2, 3.37 nM.

`c1cc(N2CCNCC2)nc(-n2ncc3cnc(-c4cncc(N5CCC5)n4)cc32)c1` [Compound 284, 6-(6-(azetidin-1-yl)pyrazin-2-yl)-1-(6-(piperazin-1-yl)pyridin-2-yl)-1H-pyrazolo[4,3-c]pyridine]: in the test on BaF3 PIM1 cells, the concentration for half-maximal inhibition (IC50) came to 385 nM. Further, the concentration giving a half-maximal response (EC50) in test [1] (setting [2]) was found to be 4600 nM. The inhibitory constant (Ki) on PIM1 was determined as 0.02 nM; at PIM3, 0.025 nM; at PIM2 it was 1.83 nM.

On to `Cc1cncc(-c2cc3c(cn2)cnn3-c2cccc(N3CCCC4(CNC4)C3)n2)n1` [Compound 293, 1-(6-(2,6-diazaspiro[3.5]nonan-6-yl)pyridin-2-yl)-6-(6-methylpyrazin-2-yl)-1H-pyrazolo[4,3-c]pyndine], for which, in the test on BaF3 PIM1 cells, the 50% inhibitory concentration (IC50) is 976 nM. Besides, in test [1] (MM1.S cells, 72 hours), the 50% effective concentration (EC50) was 7200 nM. In addition, the Ki at PIM1 amounted to 0.061 nM; on PIM3, 0.112 nM; on PIM2 it was 1.48 nM.

For the compound `COC1(c2cccc(-n3ncc4cnc(-c5cncc(C)n5)cc43)n2)CCCNC1` (centres unmarked) [Compound 295, 1-(6-(3-methoxypiperidin-3-yl)pyridin-2-yl)-6-(6-methylpyrazin-2-yl)-1H-pyrazolo[4,3-c]pyridine], the half-maximal inhibitory concentration (IC50) in the test with BaF3 PIM1 cells was found to be 425 nM. In addition, the EC50 in test [1] (MM1.S cells, 72 hours) was found to be 10900 nM. The Ki amounted to 0.256 nM at PIM1, 0.144 nM at PIM3 and 1.43 nM on PIM2.

As to `OCCCc1cncc(-c2cc3c(cn2)cnn3-c2cccc(N3CCNCC3)n2)n1` [Compound 301, 3-(6-(1-(6-(piperazin-1-yl)pyridin-2-yl)-1H-pyrazolo[4,3-c]pyridin-6-yl)pyrazin-2-yl)propan-1-ol], the IC50 with BaF3 PIM1 cells was 781 nM. For the same compound, the half-maximal effective concentration (EC50) in test [1] (MM1.S cells, 72 hours) is 4000 nM. The Ki on PIM1 stood at 0.034 nM; on PIM3, 0.018 nM; at PIM2 it was 0.446 nM.

Take `N[C@H]1CCC[C@@H]1Oc1cncc(-c2cc3c(cn2)cnn3-c2ccccn2)n1` [Compound 304, (1S,2S)-2-(6-(1-(pyridin-2-yl)-1H-pyrazolo[4,3-c]pyridin-6-yl)pyrazin-2-yloxy)cyclopentanamine]: the IC50 in the test with BaF3 PIM1 cells was 255 nM. The half-maximal effective concentration (EC50) in test [1] (MM1.S cells, 72 hours) came to 1200 nM. Also, the inhibitory constant (Ki) worked out at 0.094 nM on PIM1, 0.07 nM at PIM3 and 0.744 nM at PIM2.

On to `N[C@H]1CCC[C@@H]1Nc1cncc(-c2cc3c(cn2)cnn3-c2ccccn2)n1` [Compound 307, (1S,2S)-N1-(6-(1-(pyridin-2-yl)-1H-pyrazolo[4,3-c]pyridin-6-yl)pyrazin-2-yl)cyclopentane-1,2-diamine], for which, in the test on BaF3 PIM1 cells, the IC50 turned out to be 640 nM. For the same compound, the half-maximal effective concentration (EC50) in test [1] (setting [2]) came to 2900 nM. The Ki at PIM1 amounted to 0.12 nM; at PIM3, 0.098 nM; at PIM2, 2.97 nM.

`C#Cc1cncc(-c2cc3c(cn2)cnn3-c2cccc(N3CCNCC3)n2)n1` [Compound 315, 6-(6-ethynylpyrazin-2-yl)-1-(6-(piperazin-1-yl)pyridin-2-yl)-1H-pyrazolo[4,3-c]pyridine]: the IC50 in the test with BaF3 PIM1 cells is 2000 nM. In test [1] (setting [2]), the EC50 is 696 nM. Moreover, the Ki on PIM1 was determined as 0.136 nM; at PIM3 it was 0.057 nM; on PIM2, 1.72 nM.

For the compound `Cn1ncc(-c2cc3c(cn2)cnn3-c2ccccc2F)c1N1CCC(N)CC1` [Compound 316, 1-(4-(1-(2-fluorophenyl)-1H-pyrazolo[4,3-c]pyridin-6-yl)-1-methyl-1H-pyrazol-5-yl)piperidin-4-amine], the IC50 in the test with BaF3 PIM1 cells was > 25000 nM. Further, the EC50 in test [1] (setting [2]) is > 25000 nM. Besides, the Ki at PIM1 came out at 15.5 nM; at PIM3, 47.5 nM; at PIM2, 336 nM.
